Test results taken from ChEMBL document CHEMBL5291721, “A preclinical secondary pharmacology resource illuminates target-adverse drug reaction associations of marketed drugs” (Nat Commun, 2023).

Key:
B1 bradykinin receptor = molecular target: T1, B1 bradykinin receptor (Homo sapiens, UniProt P46663)
T1 sequence (P46663 whole entry): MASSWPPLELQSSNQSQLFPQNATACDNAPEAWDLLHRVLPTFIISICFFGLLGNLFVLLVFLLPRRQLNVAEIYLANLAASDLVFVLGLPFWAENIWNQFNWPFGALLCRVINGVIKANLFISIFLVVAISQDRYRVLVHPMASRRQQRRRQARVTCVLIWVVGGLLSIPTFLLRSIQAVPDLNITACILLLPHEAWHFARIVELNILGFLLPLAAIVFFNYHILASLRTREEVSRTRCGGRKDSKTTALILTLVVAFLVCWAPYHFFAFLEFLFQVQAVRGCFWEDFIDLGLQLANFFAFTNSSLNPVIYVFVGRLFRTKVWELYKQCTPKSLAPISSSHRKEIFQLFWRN

[1] = molecular target: Voltage-dependent N-type calcium channel subunit alpha-1B (Rattus norvegicus, UniProt Q02294); format: functional
Voltage-dependent N-type calcium channel subunit alpha-1B, sequence (Q02294 whole entry): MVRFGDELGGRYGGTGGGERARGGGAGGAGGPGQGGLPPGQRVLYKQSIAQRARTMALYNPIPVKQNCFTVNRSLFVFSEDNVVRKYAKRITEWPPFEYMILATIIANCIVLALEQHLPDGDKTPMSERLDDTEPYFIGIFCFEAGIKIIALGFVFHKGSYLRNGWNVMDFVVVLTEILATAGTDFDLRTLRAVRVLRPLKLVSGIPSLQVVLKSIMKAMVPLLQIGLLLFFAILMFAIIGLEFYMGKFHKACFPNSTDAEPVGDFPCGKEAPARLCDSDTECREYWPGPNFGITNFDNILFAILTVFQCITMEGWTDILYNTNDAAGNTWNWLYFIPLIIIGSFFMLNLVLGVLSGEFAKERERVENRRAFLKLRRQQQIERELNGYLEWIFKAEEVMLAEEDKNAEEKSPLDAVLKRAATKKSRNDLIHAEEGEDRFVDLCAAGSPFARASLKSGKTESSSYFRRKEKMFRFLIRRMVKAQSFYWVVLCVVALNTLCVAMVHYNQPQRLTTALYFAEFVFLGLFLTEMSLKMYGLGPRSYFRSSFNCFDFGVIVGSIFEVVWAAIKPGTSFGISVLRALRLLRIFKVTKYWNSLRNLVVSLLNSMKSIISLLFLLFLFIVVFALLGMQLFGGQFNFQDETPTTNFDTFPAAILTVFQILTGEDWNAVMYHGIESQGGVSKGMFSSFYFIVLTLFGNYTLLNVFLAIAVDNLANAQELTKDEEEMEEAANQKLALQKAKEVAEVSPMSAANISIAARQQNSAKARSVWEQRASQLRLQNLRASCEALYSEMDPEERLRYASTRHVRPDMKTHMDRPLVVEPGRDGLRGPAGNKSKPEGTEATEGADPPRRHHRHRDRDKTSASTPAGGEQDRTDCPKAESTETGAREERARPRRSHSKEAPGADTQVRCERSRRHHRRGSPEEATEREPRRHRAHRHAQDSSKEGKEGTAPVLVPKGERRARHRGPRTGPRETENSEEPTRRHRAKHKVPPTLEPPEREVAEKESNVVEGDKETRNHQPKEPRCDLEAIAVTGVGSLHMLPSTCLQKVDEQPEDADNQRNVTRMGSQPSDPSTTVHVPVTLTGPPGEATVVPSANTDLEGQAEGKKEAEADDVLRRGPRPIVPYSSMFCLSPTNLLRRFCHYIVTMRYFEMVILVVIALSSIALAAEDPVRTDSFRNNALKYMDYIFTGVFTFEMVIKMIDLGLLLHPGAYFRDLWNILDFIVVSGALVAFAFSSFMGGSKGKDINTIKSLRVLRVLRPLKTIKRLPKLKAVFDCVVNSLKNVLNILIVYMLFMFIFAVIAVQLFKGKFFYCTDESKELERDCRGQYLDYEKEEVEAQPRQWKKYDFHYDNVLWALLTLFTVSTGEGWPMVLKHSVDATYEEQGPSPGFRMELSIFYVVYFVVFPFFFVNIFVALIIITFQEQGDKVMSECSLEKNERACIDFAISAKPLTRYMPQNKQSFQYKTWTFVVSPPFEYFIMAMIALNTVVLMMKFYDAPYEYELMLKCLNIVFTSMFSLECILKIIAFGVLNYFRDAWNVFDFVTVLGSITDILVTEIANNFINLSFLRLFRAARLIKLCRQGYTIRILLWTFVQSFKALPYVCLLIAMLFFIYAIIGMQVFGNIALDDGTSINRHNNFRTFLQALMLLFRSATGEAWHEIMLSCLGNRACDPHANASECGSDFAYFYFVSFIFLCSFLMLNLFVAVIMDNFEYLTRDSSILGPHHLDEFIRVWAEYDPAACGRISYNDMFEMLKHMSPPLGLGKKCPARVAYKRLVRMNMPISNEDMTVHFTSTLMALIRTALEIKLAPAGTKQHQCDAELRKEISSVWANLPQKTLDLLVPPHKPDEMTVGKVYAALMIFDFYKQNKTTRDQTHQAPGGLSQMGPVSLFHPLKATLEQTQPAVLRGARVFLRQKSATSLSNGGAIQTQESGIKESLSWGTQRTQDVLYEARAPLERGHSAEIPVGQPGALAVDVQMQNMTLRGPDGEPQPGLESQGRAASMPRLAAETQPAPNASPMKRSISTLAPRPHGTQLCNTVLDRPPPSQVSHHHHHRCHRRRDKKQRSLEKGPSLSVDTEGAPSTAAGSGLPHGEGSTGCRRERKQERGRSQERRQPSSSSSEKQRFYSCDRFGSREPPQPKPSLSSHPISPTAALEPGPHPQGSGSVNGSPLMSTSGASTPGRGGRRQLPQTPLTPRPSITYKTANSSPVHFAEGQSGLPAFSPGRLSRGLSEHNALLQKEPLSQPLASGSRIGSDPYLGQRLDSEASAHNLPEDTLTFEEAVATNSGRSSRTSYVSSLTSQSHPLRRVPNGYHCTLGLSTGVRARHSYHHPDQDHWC

[2] = molecular target: Gamma-aminobutyric acid receptor subunit alpha-1/alpha-2/beta-2/gamma-2 (Homo sapiens, UniProt P14867+P18507+P47869+P47870); format: functional, cell-based
[3] = molecular target: Neurotensin receptor type 1 (Homo sapiens, UniProt P30989)
Neurotensin receptor type 1, sequence (P30989 whole entry): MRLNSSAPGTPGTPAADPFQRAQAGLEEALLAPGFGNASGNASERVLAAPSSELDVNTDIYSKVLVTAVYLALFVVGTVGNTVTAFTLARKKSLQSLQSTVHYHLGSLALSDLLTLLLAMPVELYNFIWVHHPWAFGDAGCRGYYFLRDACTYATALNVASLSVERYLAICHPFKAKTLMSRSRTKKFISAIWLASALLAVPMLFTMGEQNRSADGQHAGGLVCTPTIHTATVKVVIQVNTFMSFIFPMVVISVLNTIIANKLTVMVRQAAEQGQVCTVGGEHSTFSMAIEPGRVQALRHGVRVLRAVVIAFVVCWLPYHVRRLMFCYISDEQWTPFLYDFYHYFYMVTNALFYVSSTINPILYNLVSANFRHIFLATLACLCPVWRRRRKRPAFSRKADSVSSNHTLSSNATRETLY

Progesterone receptor = molecular target: T2, Progesterone receptor (Homo sapiens, UniProt P06401)
T2 sequence (P06401 whole entry): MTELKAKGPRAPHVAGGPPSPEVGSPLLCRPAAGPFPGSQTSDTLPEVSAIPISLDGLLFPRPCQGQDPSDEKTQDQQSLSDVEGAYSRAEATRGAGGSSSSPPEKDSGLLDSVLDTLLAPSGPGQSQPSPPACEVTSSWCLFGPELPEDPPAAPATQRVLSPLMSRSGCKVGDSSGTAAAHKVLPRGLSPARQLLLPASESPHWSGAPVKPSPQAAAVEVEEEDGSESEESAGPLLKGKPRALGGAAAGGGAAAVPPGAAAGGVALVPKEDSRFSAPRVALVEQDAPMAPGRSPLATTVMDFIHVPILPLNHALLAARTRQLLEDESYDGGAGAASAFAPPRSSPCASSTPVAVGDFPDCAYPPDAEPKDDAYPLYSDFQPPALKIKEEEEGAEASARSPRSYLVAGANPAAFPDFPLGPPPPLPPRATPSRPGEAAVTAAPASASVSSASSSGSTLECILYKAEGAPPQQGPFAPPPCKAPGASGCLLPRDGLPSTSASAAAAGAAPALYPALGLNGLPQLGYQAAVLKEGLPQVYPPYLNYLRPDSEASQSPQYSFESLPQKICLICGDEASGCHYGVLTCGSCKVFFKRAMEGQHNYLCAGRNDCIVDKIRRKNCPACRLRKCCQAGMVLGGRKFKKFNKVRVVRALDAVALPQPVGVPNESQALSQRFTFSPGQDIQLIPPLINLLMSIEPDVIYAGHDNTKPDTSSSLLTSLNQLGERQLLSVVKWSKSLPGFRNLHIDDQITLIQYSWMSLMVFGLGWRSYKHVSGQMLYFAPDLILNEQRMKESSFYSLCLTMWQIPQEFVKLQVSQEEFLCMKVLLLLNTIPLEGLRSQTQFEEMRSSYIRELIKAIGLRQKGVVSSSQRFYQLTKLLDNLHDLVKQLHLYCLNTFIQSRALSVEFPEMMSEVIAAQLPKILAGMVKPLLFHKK

[4] = molecular target: T3, 5-hydroxytryptamine receptor 1A (Homo sapiens, UniProt P08908)
T3 sequence (P08908 whole entry): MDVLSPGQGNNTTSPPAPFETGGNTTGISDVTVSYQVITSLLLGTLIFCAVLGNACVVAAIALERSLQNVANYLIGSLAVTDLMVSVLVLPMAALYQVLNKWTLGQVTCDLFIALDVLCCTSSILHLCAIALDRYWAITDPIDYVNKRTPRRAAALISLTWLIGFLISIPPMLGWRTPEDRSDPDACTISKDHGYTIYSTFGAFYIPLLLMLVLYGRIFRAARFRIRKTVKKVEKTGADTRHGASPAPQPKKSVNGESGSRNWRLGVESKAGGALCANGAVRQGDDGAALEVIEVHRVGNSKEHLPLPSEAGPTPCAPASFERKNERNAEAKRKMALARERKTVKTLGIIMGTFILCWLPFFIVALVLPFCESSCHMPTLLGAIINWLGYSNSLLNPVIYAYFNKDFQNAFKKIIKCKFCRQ

[5] = molecular target: T4, Muscarinic acetylcholine receptor M1 (Homo sapiens, UniProt P11229); format: functional
T4 sequence (P11229 whole entry): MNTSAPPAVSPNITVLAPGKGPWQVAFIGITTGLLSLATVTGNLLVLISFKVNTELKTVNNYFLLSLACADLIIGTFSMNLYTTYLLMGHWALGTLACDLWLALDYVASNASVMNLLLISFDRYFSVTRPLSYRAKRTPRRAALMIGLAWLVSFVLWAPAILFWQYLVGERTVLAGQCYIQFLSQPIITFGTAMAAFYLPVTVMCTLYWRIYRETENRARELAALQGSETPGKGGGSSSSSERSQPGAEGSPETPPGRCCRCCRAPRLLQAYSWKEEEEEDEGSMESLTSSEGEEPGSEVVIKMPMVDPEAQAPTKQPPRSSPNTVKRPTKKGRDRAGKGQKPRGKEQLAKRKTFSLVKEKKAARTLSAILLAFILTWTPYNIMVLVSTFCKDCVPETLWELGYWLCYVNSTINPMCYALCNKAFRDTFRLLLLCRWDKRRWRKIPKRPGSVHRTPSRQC

Mu-type opioid receptor = Mu-type opioid receptor (Homo sapiens, UniProt P35372); experiment: biochemical; format: functional
Mu-type opioid receptor, sequence (P35372 whole entry): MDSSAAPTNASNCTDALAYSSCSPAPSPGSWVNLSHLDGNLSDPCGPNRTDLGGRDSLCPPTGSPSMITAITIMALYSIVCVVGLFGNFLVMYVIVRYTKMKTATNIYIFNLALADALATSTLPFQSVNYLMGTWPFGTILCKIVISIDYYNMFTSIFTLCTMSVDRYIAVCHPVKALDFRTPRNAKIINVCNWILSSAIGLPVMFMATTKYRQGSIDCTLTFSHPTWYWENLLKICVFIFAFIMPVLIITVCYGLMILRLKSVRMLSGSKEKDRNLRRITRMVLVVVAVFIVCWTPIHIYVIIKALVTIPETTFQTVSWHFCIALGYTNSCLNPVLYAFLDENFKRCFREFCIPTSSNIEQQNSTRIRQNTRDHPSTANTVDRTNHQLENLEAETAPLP

[6] = molecular target: T5, 5-hydroxytryptamine receptor 2A (Homo sapiens, UniProt P28223); format: functional, cell-based
T5 sequence (P28223 whole entry): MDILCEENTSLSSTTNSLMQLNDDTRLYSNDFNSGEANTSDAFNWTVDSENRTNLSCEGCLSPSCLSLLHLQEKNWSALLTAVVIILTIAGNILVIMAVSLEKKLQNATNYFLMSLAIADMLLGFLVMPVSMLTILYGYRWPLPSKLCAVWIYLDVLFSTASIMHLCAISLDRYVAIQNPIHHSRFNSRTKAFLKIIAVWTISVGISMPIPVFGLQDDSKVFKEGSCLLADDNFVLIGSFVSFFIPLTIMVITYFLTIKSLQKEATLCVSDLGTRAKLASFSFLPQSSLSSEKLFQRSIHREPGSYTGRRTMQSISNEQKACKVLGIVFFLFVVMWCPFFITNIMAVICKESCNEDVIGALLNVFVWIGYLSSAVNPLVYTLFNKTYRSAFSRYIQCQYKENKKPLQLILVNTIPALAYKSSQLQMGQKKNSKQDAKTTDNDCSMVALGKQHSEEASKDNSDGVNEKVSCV

[7] = molecular target: T5, 5-hydroxytryptamine receptor 2A; format: functional, cell-based; remark: listed apart in the source
Further: assay procedure not described here.

Structure (SMILES)	AC50 (B1 bradykinin receptor) [µM]	AC50 [1] [µM]	AC50 [2] [µM]	AC50 [3] [µM]	AC50 (Progesterone receptor) [µM]	AC50 [4] [µM]	AC50 [5] [µM]	AC50 (Mu-type opioid receptor) [µM]	AC50 [6] [µM]	AC50 [7] [µM]
CCOc1nc2cccc(C(=O)O)c2n1Cc1ccc(-c2ccccc2-c2nnn[nH]2)cc1	> 30	> 10	> 30	> 30	> 30	> 10	–	–	–	–
CCCc1nc2c(C)cc(-c3nc4ccccc4n3C)cc2n1Cc1ccc(-c2ccccc2C(=O)O)cc1	> 30	> 10	> 30	> 30	> 30	> 10	> 30	3.7	–	–
CCOc1cc([C@@H](CS(C)(=O)=O)N2C(=O)c3cccc(NC(C)=O)c3C2=O)ccc1OC	–	–	> 30	–	–	–	> 30	–	> 30	> 30
CC1(C)S[C@@H]2[C@H](NC(=O)C(C(=O)O)c3ccccc3)C(=O)N2[C@H]1C(=O)O (some centres undefined) [CARBENICILLIN]	–	–	> 30	–	–	–	> 30	> 30	> 30	> 30
Cc1nnc(SCC2=C(C(=O)O)N3C(=O)[C@@H](NC(=O)Cn4cnnn4)[C@H]3SC2)s1 [CEFAZOLIN]	–	–	> 2400	–	–	–	> 300	> 30	> 300	> 30
CC(C)(O/N=C(\C(=O)N[C@@H]1C(=O)N2C(C(=O)[O-])=C(C[n+]3ccccc3)CS[C@H]12)c1csc(N)n1)C(=O)O [CEFTAZIDIME]	–	–	> 2400	–	–	–	> 300	> 30	> 300	> 30
CC(C)NC(=N)NC(=N)Nc1ccc(Cl)c(Cl)c1 [CHLORPROGUANIL]	–	–	> 30	–	–	–	> 30	> 30	> 30	3.6
CCCNC(=O)NS(=O)(=O)c1ccc(Cl)cc1 [CHLORPROPAMIDE]	> 30	> 10	–	> 30	> 30	> 10	–	–	–	–
C[N+](C)(C)CCOP(=O)(O)OP(=O)([O-])OC[C@H]1O[C@@H](n2ccc(N)nc2=O)[C@H](O)[C@@H]1O [CITICOLINE]	–	–	> 30	–	–	–	> 10	> 30	> 30	> 30
Clc1ccc(Cn2c(CN3CCCC3)nc3ccccc32)cc1 [CLEMIZOLE]	–	–	> 30	–	–	–	> 30	–	> 30	15
Cc1nc(Nc2ncc(C(=O)Nc3c(C)cccc3Cl)s2)cc(N2CCN(CCO)CC2)n1 [DASATINIB]	> 10	> 10	–	–	> 30	21.9	> 30	–	–	–
CC(C)Cc1ccc([C@H](C)C(=O)O)cc1 [DEXIBUPROFEN]	–	–	> 30	–	–	–	–	–	–	–
O=C(O)Cc1ccccc1Nc1c(Cl)cccc1Cl [DICLOFENAC]	> 30	> 10	–	> 30	> 30	> 10	–	–	–	–
O=C(O)Cc1ccccc1Oc1ccc(Cl)cc1Cl [FENCLOFENAC]	> 30	> 10	–	> 30	> 30	> 10	> 10	–	–	–
Cc1onc(-c2c(F)cccc2Cl)c1C(=O)N[C@@H]1C(=O)N2[C@@H]1SC(C)(C)[C@@H]2C(=O)O [FLOXACILLIN]	–	–	> 30	–	–	–	> 30	–	> 30	> 30
Cc1ccc(C)c(OCCCC(C)(C)C(=O)O)c1 [GEMFIBROZIL]	> 30	> 10	–	> 30	> 30	> 10	–	–	–	–
COc1cc(C(C)=O)ccc1OCCCN1CCC(c2noc3cc(F)ccc23)CC1 [ILOPERIDONE]	–	–	> 30	–	–	0.0785	6.38	–	–	–
CC[C@H](C)C(=O)O[C@H]1C[C@@H](C)C=C2C=C[C@H](C)[C@H](CC[C@@H]3C[C@@H](O)CC(=O)O3)[C@H]21 [LOVASTATIN]	> 30	> 10	–	> 30	29.7	> 10	–	–	–	–
CC[C@@H](CO)NC(=O)[C@@H]1C=C2c3cccc4c3c(cn4C)C[C@H]2N(C)C1 [METHYSERGIDE]	> 30	> 10	–	> 30	16	0.192	–	–	–	–
CN1Cc2c(N)cccc2C(c2ccccc2)C1 (centres undefined) [NOMIFENSINE]	–	–	> 30	–	–	–	> 30	1.4	> 30	15
CC(CN1c2ccccc2Sc2ccccc21)N(C)C (centres undefined) [PROMETHAZINE]	> 30	> 10	–	> 30	> 30	6.7	–	–	–	–
CN(CCOc1ccc(CC2SC(=O)NC2=O)cc1)c1ccccn1 (centres undefined) [ROSIGLITAZONE]	> 30	> 10	–	> 30	> 30	> 10	–	> 30	–	–
S=P(N1CC1)(N1CC1)N1CC1 [THIOTEPA]	–	–	> 30	–	–	–	–	–	–	–
CC(C)[C@H](N)C(=O)OCCOCn1cnc2c(=O)[nH]c(N)nc21 [VALACYCLOVIR]	> 30	> 10	–	> 30	> 30	> 10	–	–	–	–
O=C1Cc2cc(CCN3CCN(c4nsc5ccccc45)CC3)c(Cl)cc2N1 [ZIPRASIDONE]	> 30	> 10	–	> 30	21.8	0.008	> 10	–	–	–
